# Columns and labels:
# TK-10 = assay: NCI DTP 60 cell line screen, SRB; conditions: for GI50 / CC50: Homo sapiens, TK-10, 48 h; for CC50: read-out: LC50; for TGI: TK-10 (Renal Cancer), 48 h, SRB
# 60 tumor cell lines = assay: NCI60 full panel MG_MID; conditions: for GI50 / CC50: Homo sapiens; for GI50: read-out: 60 lines MG_MID, GI50; for CC50: read-out: 60 lines MG_MID, LC50; for 60 lines MG_MID, TGI: mean over all cell lines
# Protocol: At the first stage of biological activity study, the antitumor activity screening of the selected compounds 2b, 2c, 2f, 2h, and 2j was performed according to the NCI DTP (USA) standard protocol at the concentrations ranging from 10^−4 to 10^−8 M toward 60 tumor cell lines. The percentage of growth was evaluated spectrophotometrically versus controls not treated with test agents after 48 h exposure and using SRB protein assay to estimate cell viability or growth. Dose–response parameters were calculated for each cell line: GI50—molar concentration of the compound that inhibits 50% net cell growth; TGI—molar concentration of the compound leading to the total inhibition; and LC50—molar concentration of the compound leading to 50% net cell death. Furthermore, mean graph midpoints (MG_MID) were calculated for each of the parameters, giving an average activity parameter over all cell lines for the tested compound. For the MG_MID calculation, insensitive cell lines were included with the highest concentration tested.
# Primary anticancer assay was performed on a panel of approximately sixty human tumor cell lines derived from nine neoplastic diseases, in accordance with the protocol of the Drug Evaluation Branch, National Cancer Institute, Bethesda. Tested compounds were added to the culture at a single concentration (10^−5 M) and the cultures were incubated for 48 h. End point determinations were made with a protein binding dye, sulforhodamine B (SRB). […] The percentage growth was evaluated spectrophotometrically versus controls not treated with test agents.
# Dose–response parameters (GI50, TGI, LC50) were calculated for each compound. […] The drug concentration resulting in total growth inhibition (TGI) was calculated from Ti = Tz. The LC50 (concentration of drug resulting in a 50% reduction in the measured protein at the end of the drug treatment as compared to that at the beginning) indicating a net loss of cells following treatment was calculated from [(Ti − Tz)/Tz] × 100 = −50 (2). Values were calculated for each of these parameters if the level of activity was reached; however, if the effect was not reached or was excessive, the value for that parameter was expressed as more or less than the maximum or minimum concentration tested.
# CAKI-1 = assay: NCI DTP 60 cell line screen, SRB; conditions: for TGI: CAKI-1 (Renal Cancer), 48 h, SRB; for GI50 / CC50: Homo sapiens, CAKI-1, 48 h; for CC50: read-out: LC50
# A549/ATCC = assay: cells; conditions: Homo sapiens, A549, 48 h; for CC50: read-out: LC50
# ACHN = assay: NCI DTP 60 cell line screen, SRB; conditions: 48 h; for TGI: ACHN (Renal Cancer), SRB; for GI50 / CC50: Homo sapiens, ACHN; for CC50: read-out: LC50
# SNB-75 [1] = conditions: SNB-75 (CNS Cancer), 48 h, SRB
# SW-620 [2] = conditions: SW-620 (Colon Cancer), 48 h, SRB
# SNB-75 [3] = assay: cells; conditions: Homo sapiens, SNB-75, 48 h; for CC50: read-out: LC50
# NCI-H522 = assay: NCI DTP 60 cell line screen, SRB; conditions: for GI50 / CC50: Homo sapiens, NCI-H522, 48 h; for CC50: read-out: LC50; for TGI: NCI-H522 (Non-Small Cell Lung Cancer), 48 h, SRB
# SR [4] = conditions: for TGI: SR (Leukemia), 48 h, SRB
# SR [5] = assay: cells; conditions: Homo sapiens, 48 h; for CC50: read-out: LC50
# KM12 = assay: cells; conditions: Homo sapiens, KM12, 48 h; for CC50: read-out: LC50
# OVCAR-3 = assay: NCI DTP 60 cell line screen, SRB; conditions: for GI50 / CC50: Homo sapiens, OVCAR-3, 48 h; for CC50: read-out: LC50; for TGI: OVCAR-3 (Ovarian Cancer), 48 h, SRB
# 786-0 = assay: cells; conditions: Homo sapiens, 786-0, 48 h; for CC50: read-out: LC50
# NCI/ADR-Res = assay: NCI DTP 60 cell line screen, SRB; conditions: 48 h
# SF-295 = assay: NCI DTP 60 cell line screen, SRB; conditions: for GI50 / CC50: Homo sapiens, SF-295, 48 h; for CC50: read-out: LC50; for TGI: SF-295 (CNS Cancer), 48 h, SRB
# K-562 = conditions: for TGI: K-562 (Leukemia), 48 h, SRB
# SF-268 = assay: NCI DTP 60 cell line screen, SRB; conditions: for GI50 / CC50: Homo sapiens, SF-268, 48 h; for CC50: read-out: LC50; for TGI: SF-268 (CNS Cancer), 48 h, SRB
# EKVX = EKVX (Non-Small Cell Lung Cancer), 48 h, SRB
# PC-3 [6] = assay: cells; conditions: Homo sapiens, PC-3, 48 h; for CC50: read-out: LC50
# PC-3 [7] = conditions: PC-3 (Prostate Cancer), 48 h, SRB
# T-47D = T-47D (Breast Cancer), 48 h, SRB
# RPMI-8226 = assay: cells; conditions: Homo sapiens, RPMI-8226, 48 h; for CC50: read-out: LC50
# SW-620 [8] = assay: cells; conditions: Homo sapiens, SW-620, 48 h; for CC50: read-out: LC50
compound,measurement,setting,value
"O=C1NC(=S)S/C1=C\C(Cl)=C\c1ccc([N+](=O)[O-])cc1 [Compound 2b, 5-[(Z,2Z)-2-Chloro-3-(4-nitrophenyl)-2-propenylidene]-2-thioxo-4-thiazolidinone]",GI50,TK-10,10.6 µM
same,CC50,TK-10,> 50 µM
same,TGI,TK-10,23.2 µM
same,GI50,60 tumor cell lines,4.79 µM
same,CC50,60 tumor cell lines,43.5 µM
same,"60 lines MG_MID, TGI",60 tumor cell lines,20.3 µM
same,TGI,CAKI-1,25.2 µM
same,GI50,CAKI-1,7.14 µM
same,CC50,CAKI-1,> 50 µM
same,GI50,A549/ATCC,8.18 µM
same,CC50,A549/ATCC,> 50 µM
same,TGI,ACHN,11.8 µM
same,GI50,ACHN,3.64 µM
same,CC50,ACHN,31.7 µM
same,TGI,SNB-75 [1],23.5 µM
same,TGI,SW-620 [2],7.62 µM
same,GI50,SNB-75 [3],7.59 µM
same,CC50,SNB-75 [3],> 50 µM
same,GI50,NCI-H522,3.19 µM
same,CC50,NCI-H522,42.3 µM
same,TGI,NCI-H522,13.1 µM
same,TGI,SR [4],7.96 µM
same,GI50,SR [5],1.18 µM
same,CC50,SR [5],> 50 µM
same,GI50,KM12,5.27 µM
same,CC50,KM12,40.4 µM
same,GI50,OVCAR-3,1.65 µM
same,CC50,OVCAR-3,26.6 µM
same,TGI,OVCAR-3,8.08 µM
same,GI50,786-0,9.4 µM
same,CC50,786-0,37.6 µM
same,GI50,"NCI/ADR-Res; Homo sapiens, NCI/ADR-RES",5.71 µM
same,CC50,"NCI/ADR-Res; Homo sapiens, NCI/ADR-RES, read-out: LC50",> 50 µM
same,TGI,"NCI/ADR-Res; NCI/ADR-Res (Breast Cancer), SRB",18.3 µM
same,GI50,SF-295,8.46 µM
same,CC50,SF-295,> 50 µM
same,TGI,SF-295,37.9 µM
same,TGI,K-562,42.5 µM
same,GI50,SF-268,5.24 µM
same,CC50,SF-268,> 50 µM
same,TGI,SF-268,18.9 µM
same,TGI,EKVX,> 50 µM
same,GI50,PC-3 [6],4.68 µM
same,CC50,PC-3 [6],> 50 µM
same,TGI,PC-3 [7],> 50 µM
same,TGI,T-47D,> 50 µM
same,GI50,RPMI-8226,1.54 µM
same,CC50,RPMI-8226,> 50 µM
same,GI50,SW-620 [8],1.94 µM
same,CC50,SW-620 [8],23.5 µM
"O=C(O)C(Cc1ccccc1)N1C(=O)/C(=C/C(Cl)=C/c2ccc([N+](=O)[O-])cc2)SC1=S (stereo not drawn) [Compound 2j, 2-{5-[(Z,2Z)-2-Chloro-3-(4-nitrophenyl)-2-propenylidene]-4-oxo-2-thioxothiazolidin-3-yl}-3-phenylpropanoic acid]",GI50,TK-10,2.43 µM
same,CC50,TK-10,> 100 µM
same,TGI,TK-10,> 100 µM
same,GI50,60 tumor cell lines,4.09 µM
same,CC50,60 tumor cell lines,73.9 µM
same,"60 lines MG_MID, TGI",60 tumor cell lines,40.6 µM
same,TGI,CAKI-1,5.09 µM
same,GI50,CAKI-1,2.28 µM
same,CC50,CAKI-1,16.7 µM
same,GI50,A549/ATCC,3.46 µM
same,CC50,A549/ATCC,> 100 µM
same,TGI,ACHN,3.30 µM
same,GI50,ACHN,1.8 µM
same,CC50,ACHN,6.04 µM
same,TGI,SNB-75 [1],5.37 µM
same,TGI,SW-620 [2],4.39 µM
same,GI50,SNB-75 [3],1.96 µM
same,CC50,SNB-75 [3],> 100 µM
same,GI50,NCI-H522,1.72 µM
same,CC50,NCI-H522,29.5 µM
same,TGI,NCI-H522,4.47 µM
same,TI (Therapeutic Index),SR [4]; GI50 (normal blood lymphocyte)/GI50 (SR),19.99
same,TGI,SR [4],> 100 µM
same,GI50,SR [5],2.45 µM
same,CC50,SR [5],> 100 µM
same,GI50,KM12,2.06 µM
same,CC50,KM12,9.16 µM
same,GI50,OVCAR-3,1.76 µM
same,CC50,OVCAR-3,6.98 µM
same,TGI,OVCAR-3,3.51 µM
same,GI50,786-0,2.1 µM
same,CC50,786-0,> 100 µM
same,GI50,SF-295,2.59 µM
same,CC50,SF-295,> 100 µM
same,TGI,SF-295,7.85 µM
same,TI (Therapeutic Index),K-562; GI50 (normal blood lymphocyte)/GI50 (K-562),16.27
same,TGI,K-562,> 100 µM
same,GI50,SF-268,2.21 µM
same,CC50,SF-268,> 100 µM
same,TGI,SF-268,> 100 µM
same,TGI,EKVX,7.29 µM
same,GI50,PC-3 [6],2.53 µM
same,CC50,PC-3 [6],> 100 µM
same,TGI,PC-3 [7],7.98 µM
same,TGI,T-47D,3.71 µM
same,GI50,RPMI-8226,3.22 µM
same,CC50,RPMI-8226,> 100 µM
same,GI50,SW-620 [8],2.1 µM
same,CC50,SW-620 [8],> 100 µM
